Common to all, as to assay: relative viability (nuclei count vs DMSO), 5 days (fraction); higher = more cells survive
Compound in the experiment “Crenolanib + Navitoclax”: CC1(COc2ccc3c(c2)ncn3-c2ccc3cccc(N4CCC(N)CC4)c3n2)COC1 [Crenolanib] + CC1(C)CCC(c2ccc(Cl)cc2)=C(CN2CCN(c3ccc(C(=O)NS(=O)(=O)c4ccc(N[C@H](CCN5CCOCC5)CSc5ccccc5)c(S(=O)(=O)C(F)(F)F)c4)cc3)CC2)C1 [Navitoclax] (partner 0.5 µM)
In short, it runs like this: (§1)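 Medians of duplicate plates are given as relative viability. That measure is the nuclei count in treated wells divided by the count in vehicle wells. Counts were taken on 4× images of lung cancer cell lines in 1536-well plates, 5 days after pin-tool dosing the day after seeding with one drug alone or a fixed anchor-drug dose plus five library-drug doses (not always all listed) in √10 steps.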

Compound in the experiment “Crenolanib + Bortezomib”: CC1(COc2ccc3c(c2)ncn3-c2ccc3cccc(N4CCC(N)CC4)c3n2)COC1 [Crenolanib] + CC(C)C[C@H](NC(=O)[C@H](Cc1ccccc1)NC(=O)c1cnccn1)B(O)O [Bortezomib] (partner 0.002 µM)
The method in brief:
as §1

Compound in the experiment “Tivantinib + Phenformin”: O=C1NC(=O)[C@@H](c2cn3c4c(cccc24)CCC3)[C@@H]1c1c[nH]c2ccccc12 [Tivantinib] + N=C(N)NC(=N)NCCc1ccccc1 [Phenformin] (partner 250 µM)
In short, it runs like this:
as §1

Compound in the experiment “Crenolanib + Pemetrexed”: CC1(COc2ccc3c(c2)ncn3-c2ccc3cccc(N4CCC(N)CC4)c3n2)COC1 [Crenolanib] + Nc1nc2[nH]cc(CCc3ccc(C(=O)N[C@@H](CCC(=O)O)C(=O)O)cc3)c2c(=O)[nH]1 [Pemetrexed] (partner 0.2 µM)
In short, it runs like this: as §1

In the case of Calu-6, the relative viability was 1.02 in the experiment with Crenolanib + Navitoclax (first compound 0.01 µM); 0.781 with Crenolanib + Navitoclax (first compound 0.03162 µM); 0.826 with Crenolanib + Navitoclax (first compound 0.1 µM); 0.941 with Crenolanib + Navitoclax (first compound 0.3162 µM); 0.838 with Crenolanib + Navitoclax (first compound 1 µM); 1.06 with Crenolanib + Bortezomib (first compound 0.01 µM). Besides, the relative viability amounted to 0.97 in the experiment with Crenolanib + Bortezomib (first compound 0.03162 µM), 1.03 with Crenolanib + Bortezomib (first compound 0.1 µM), 1.1 with Crenolanib + Bortezomib (first compound 0.3162 µM) and 1.02 with Crenolanib + Bortezomib (first compound 1 µM).

For the cell line ChaGo-K-1, the relative viability with Crenolanib + Navitoclax (first compound 0.01 µM) is 0.674; with Crenolanib + Navitoclax (first compound 0.03162 µM), 0.917; with Crenolanib + Navitoclax (first compound 0.1 µM) it was 1; with Crenolanib + Navitoclax (first compound 0.3162 µM) it was 0.844; in the experiment with Crenolanib + Navitoclax (first compound 1 µM), 1; in the experiment with Crenolanib + Bortezomib (first compound 0.01 µM) it was 1.07. Besides, the relative viability in the experiment with Crenolanib + Bortezomib (first compound 0.03162 µM) came out at 0.769; with Crenolanib + Bortezomib (first compound 0.1 µM), 0.941; in the experiment with Crenolanib + Bortezomib (first compound 0.3162 µM), 0.969; in the experiment with Crenolanib + Bortezomib (first compound 1 µM), 0.971; in the experiment with Tivantinib + Phenformin (first compound 0.01 µM) it was 0.586; with Tivantinib + Phenformin (first compound 0.03162 µM), 0.442. Moreover, the relative viability came out at 0.483 with Tivantinib + Phenformin (first compound 0.1 µM); 0.542 with Tivantinib + Phenformin (first compound 0.3162 µM); 0.26 with Crenolanib + Pemetrexed (first compound 0.01 µM); 0.256 in the experiment with Crenolanib + Pemetrexed (first compound 0.03162 µM); 0.255 with Crenolanib + Pemetrexed (first compound 0.1 µM); 0.253 with Crenolanib + Pemetrexed (first compound 0.3162 µM). Further, in the experiment with Crenolanib + Pemetrexed (first compound 1 µM), the relative viability came to 0.27.

For EBC-1, the relative viability was determined as 0.504 with Crenolanib + Navitoclax (first compound 0.01 µM); 0.395 with Crenolanib + Navitoclax (first compound 0.03162 µM); 0.467 with Crenolanib + Navitoclax (first compound 0.1 µM); 0.566 with Crenolanib + Navitoclax (first compound 0.3162 µM); 0.571 in the experiment with Crenolanib + Navitoclax (first compound 1 µM); 0.798 in the experiment with Crenolanib + Bortezomib (first compound 0.01 µM). Further, the relative viability in the experiment with Crenolanib + Bortezomib (first compound 0.03162 µM) was determined as 0.581; in the experiment with Crenolanib + Bortezomib (first compound 0.1 µM), 0.573; with Crenolanib + Bortezomib (first compound 0.3162 µM), 0.559; with Crenolanib + Bortezomib (first compound 1 µM) it was 0.462.

For the cell line EKVX, the relative viability worked out at 1.01 with Crenolanib + Navitoclax (first compound 0.01 µM); 0.898 with Crenolanib + Navitoclax (first compound 0.03162 µM); 0.881 with Crenolanib + Navitoclax (first compound 0.1 µM); 1.11 with Crenolanib + Navitoclax (first compound 0.3162 µM); 0.899 with Crenolanib + Navitoclax (first compound 1 µM); 1.03 with Crenolanib + Bortezomib (first compound 0.01 µM). Besides, the relative viability stood at 0.994 with Crenolanib + Bortezomib (first compound 0.03162 µM); 0.974 in the experiment with Crenolanib + Bortezomib (first compound 0.1 µM); 1.2 with Crenolanib + Bortezomib (first compound 0.3162 µM); 1.08 in the experiment with Crenolanib + Bortezomib (first compound 1 µM); 0.218 with Tivantinib + Phenformin (first compound 0.01 µM); 0.256 in the experiment with Tivantinib + Phenformin (first compound 0.03162 µM). In addition, the relative viability with Tivantinib + Phenformin (first compound 0.1 µM) worked out at 0.243; with Crenolanib + Pemetrexed (first compound 0.01 µM), 0.413; with Crenolanib + Pemetrexed (first compound 0.03162 µM), 0.423; with Crenolanib + Pemetrexed (first compound 0.1 µM), 0.401; with Crenolanib + Pemetrexed (first compound 0.3162 µM) it was 0.379; with Crenolanib + Pemetrexed (first compound 1 µM), 0.387.

For EMC-BAC-2, the relative viability with Crenolanib + Navitoclax (first compound 0.01 µM) came to 1.22; in the experiment with Crenolanib + Navitoclax (first compound 0.03162 µM) it was 1.21; with Crenolanib + Navitoclax (first compound 0.1 µM) it was 1.09; in the experiment with Crenolanib + Navitoclax (first compound 0.3162 µM), 1.36; with Crenolanib + Navitoclax (first compound 1 µM), 1.16; in the experiment with Crenolanib + Bortezomib (first compound 0.01 µM), 1.19. Besides, the relative viability with Crenolanib + Bortezomib (first compound 0.03162 µM) is 1.03; with Crenolanib + Bortezomib (first compound 0.1 µM) it was 1.01; with Crenolanib + Bortezomib (first compound 0.3162 µM), 1.18; with Crenolanib + Bortezomib (first compound 1 µM), 1.01; in the experiment with Tivantinib + Phenformin (first compound 0.01 µM) it was 0.566; with Tivantinib + Phenformin (first compound 0.03162 µM), 0.453. Moreover, the relative viability with Tivantinib + Phenformin (first compound 0.1 µM) worked out at 0.528; with Tivantinib + Phenformin (first compound 0.3162 µM) it was 0.528; with Crenolanib + Pemetrexed (first compound 0.01 µM), 0.437; with Crenolanib + Pemetrexed (first compound 0.1 µM) it was 0.456; with Crenolanib + Pemetrexed (first compound 0.3162 µM), 0.449; with Crenolanib + Pemetrexed (first compound 1 µM), 0.436.

Regarding EPLC-272H, the relative viability with Crenolanib + Navitoclax (first compound 0.03162 µM) turned out to be 1.25; with Crenolanib + Navitoclax (first compound 0.1 µM), 0.988; in the experiment with Crenolanib + Navitoclax (first compound 0.3162 µM), 1.17; with Crenolanib + Navitoclax (first compound 1 µM) it was 1.08; with Crenolanib + Bortezomib (first compound 0.03162 µM), 0.766; in the experiment with Crenolanib + Bortezomib (first compound 0.1 µM) it was 0.747. For the same cell line, the relative viability with Crenolanib + Bortezomib (first compound 0.3162 µM) was 0.887; with Crenolanib + Bortezomib (first compound 1 µM), 0.874; with Tivantinib + Phenformin (first compound 0.01 µM) it was 0.248; in the experiment with Tivantinib + Phenformin (first compound 0.03162 µM), 0.294; with Tivantinib + Phenformin (first compound 0.1 µM), 0.296; with Tivantinib + Phenformin (first compound 0.3162 µM) it was 0.0595. In addition, the relative viability was found to be 0.322 with Crenolanib + Pemetrexed (first compound 0.01 µM); 0.342 in the experiment with Crenolanib + Pemetrexed (first compound 0.03162 µM); 0.346 with Crenolanib + Pemetrexed (first compound 0.1 µM); 0.336 in the experiment with Crenolanib + Pemetrexed (first compound 0.3162 µM); 0.353 with Crenolanib + Pemetrexed (first compound 1 µM).

Take H3255: the relative viability in the experiment with Crenolanib + Navitoclax (first compound 0.01 µM) was determined as 0.607; in the experiment with Crenolanib + Navitoclax (first compound 0.03162 µM) it was 0.419; with Crenolanib + Navitoclax (first compound 0.1 µM) it was 0.421; with Crenolanib + Navitoclax (first compound 0.3162 µM), 0.501; in the experiment with Crenolanib + Navitoclax (first compound 1 µM), 0.492; with Crenolanib + Bortezomib (first compound 0.01 µM) it was 0.89. In addition, the relative viability turned out to be 0.543 with Crenolanib + Bortezomib (first compound 0.03162 µM); 0.765 in the experiment with Crenolanib + Bortezomib (first compound 0.1 µM); 0.7 in the experiment with Crenolanib + Bortezomib (first compound 0.3162 µM); 0.759 in the experiment with Crenolanib + Bortezomib (first compound 1 µM); 0.315 with Tivantinib + Phenformin (first compound 0.01 µM); 0.357 with Tivantinib + Phenformin (first compound 0.03162 µM). The relative viability turned out to be 0.355 in the experiment with Tivantinib + Phenformin (first compound 0.1 µM); 0.597 with Crenolanib + Pemetrexed (first compound 0.01 µM); 0.563 with Crenolanib + Pemetrexed (first compound 0.03162 µM); 0.544 with Crenolanib + Pemetrexed (first compound 0.1 µM); 0.553 with Crenolanib + Pemetrexed (first compound 0.3162 µM); 0.589 with Crenolanib + Pemetrexed (first compound 1 µM).

For the cell line HARA, the relative viability was found to be 1.13 with Crenolanib + Navitoclax (first compound 0.01 µM); 1.16 with Crenolanib + Navitoclax (first compound 0.03162 µM); 1.16 in the experiment with Crenolanib + Navitoclax (first compound 0.1 µM); 1.18 with Crenolanib + Navitoclax (first compound 0.3162 µM); 1.16 with Crenolanib + Navitoclax (first compound 1 µM); 1.17 with Crenolanib + Bortezomib (first compound 0.01 µM). Besides, the relative viability with Crenolanib + Bortezomib (first compound 0.03162 µM) came out at 1.1; in the experiment with Crenolanib + Bortezomib (first compound 0.1 µM) it was 1.09; with Crenolanib + Bortezomib (first compound 0.3162 µM), 1.13; in the experiment with Crenolanib + Bortezomib (first compound 1 µM), 1.16; in the experiment with Tivantinib + Phenformin (first compound 0.01 µM), 0.418; with Tivantinib + Phenformin (first compound 0.03162 µM), 0.417. Besides, the relative viability was 0.416 with Tivantinib + Phenformin (first compound 0.1 µM); 0.373 with Tivantinib + Phenformin (first compound 0.3162 µM); 0.3 in the experiment with Crenolanib + Pemetrexed (first compound 0.01 µM); 0.231 with Crenolanib + Pemetrexed (first compound 0.03162 µM); 0.224 with Crenolanib + Pemetrexed (first compound 0.1 µM); 0.225 with Crenolanib + Pemetrexed (first compound 0.3162 µM). The relative viability with Crenolanib + Pemetrexed (first compound 1 µM) was 0.236.
